Test results: paper PMC12429151 (International Journal of Molecular Sciences, 2025)

Experiments:
[1] = tested on: A549-xenografted tumors; test: A549 xenograft nude mouse model; conditions: cisplatin 5 mg/kg intravenous
Method: The body weights of mice and their tumor sizes were measured twice a week. Cisplatin was used as internal control.
The four-week-old female Balb/c nu/nu mice were bought from Orient Bio (Sungnam, Republic of Korea) and maintained for two weeks at 25 ± 2 °C in 50 ± 5% relative humidity with 12 h dark/light cycles. Then, 5 × 10^6 A546 human lung cancer cells mixed with Matrigel were injected subcutaneously into the right dorsal area. […] The body weights and tumor sizes of the mice were measured twice a week for five weeks. […] The tumor volume in each mouse was determined using the following formula: tumor volume (mm^3) = length × width^2 × 0.5.

[2] = tested on: cancer and normal cells; test: AV/PI flow cytometric analysis, positive control; type: cell-based, human; conditions: 24 h, AV/PI staining
Method: 5 × 10^5/well cells were plated into 6-well plates and incubated at 37 °C with 5% CO2 for 24 h to allow adhesion. […] The conditioned medium was collected into a 15 mL conical tube to retrieve the floating cells, while adherent cells were detached using trypsin. The floating cells in the collected medium were combined with the detached adherent cells and centrifuged for 2 min at 3000 rpm at 4 °C to collect the cells. The cell pellet was resuspended using 1x binding buffer containing AV and PI and incubated for 30 min at 37 °C. The cells were analyzed using a CytoFLEX Flow Cytometer (Beckman Coulter, Brea, CA, USA).

[3] = tested on: human red blood cells (RBCs); test: Hemolysis assay; type: cell-based; conditions: human RBCs in PBS, 37 °C, 1 h, absorbance 405 nm, relative to 1% Triton X-100
Method: This study was approved by the Institutional Review Board of Dongguk University (No.: DGU IRB 20200007-01). RBCs were prepared from human blood obtained from the Korean Red Cross by centrifugation at 2000 rpm for 30 min at 10 °C, followed by pellet collection. RBC pellets were washed by resuspending in phosphate-buffered saline (PBS) and centrifugation at 2000 rpm for 30 min at 10 °C thrice. Subsequently, RBCs were resuspended in PBS and 50 μL/well of RBC solution was loaded into a 96-well plate. […] Finally, the absorbance of the supernatant was measured at 405 nm using an Epoch ELISA Reader. […] All the absorbance values were normalized to those of PBS.

[4] = tested on: Caco-2 cells; test: MTT cell viability assay; conditions: Caco-2, 24 h treatment, absorbance 530 nm
Method: (§1) Then, the cells were further incubated for 4 h in the dark after adding MTT reagent. After incubation, formed formazan crystal was dissolved. The absorbance of the solubilized formazan was measured at 530 nm to determine cell viability of each AMP.
(§2) A549 human lung cancer cells, MDA-MB-231 triple-negative human breast cancer cells, HT-29 human colorectal adenocarcinoma, Panc-1 human pancreatic cancer cell line, and Caco2 human epithelial cell line were purchased from the Korean Cell Line Bank (Seoul, Republic of Korea). HaCaT human keratinocytes were gifted by Professor Su-Kyung Kim (Department of Pharmacology, Keimyung University School of Medicine). The cells were routinely grown in Dulbecco’s Modified Eagle Medium supplemented with 10% fetal bovine serum and 1% antimycotic/antibiotic solution at 37 °C in an atmosphere containing 5% CO2.
(§3) 1 × 10^4 cells were seeded into each well in a 96-well plate and attached for 24 h at 37 °C. […] The medium was removed, and the cells were incubated for 4 h in the dark after adding 50 μL of MTT reagent (Sigma-Aldrich; Merck KGaA, Darmstadt, Germany) in an each well.

[5] = tested on: HaCaT cells; test: MTT cell viability assay; conditions: 24 h treatment, absorbance 530 nm
Method: as §1, §2, §3

Structure (SMILES) | body weight [1] | tumor growth ([1]; twice in the first week, start at about 400 mm^3) | cytotoxicity in cancer and normal cells [2] | concentration showing hemolytic activity [3] | concentration showing cytotoxicity [4] [ng/mL] | concentration showing cytotoxicity [5] [ng/mL]
N.N.[Cl][Pt][Cl] [cisplatin] | significant body weight loss | effectively suppressed | – | – | – | –
CC[C@H](C)[C@H](NC(=O)CN)C(=O)NCC(=O)N[C@@H](C)C(=O)N[C@H](C(=O)N[C@@H](CC(C)C)C(=O)N[C@@H](CCCCN)C(=O)N[C@H](C(=O)N[C@@H](CC(C)C)C(=O)N[C@H](C(=O)N[C@H](C(=O)NCC(=O)N[C@@H](CC(C)C)C(=O)N1CCC[C@H]1C(=O)N[C@@H](C)C(=O)N[C@@H](CC(C)C)C(=O)N[C@H](C(=O)N[C@@H](CO)C(=O)N[C@@H](Cc1c[nH]c2ccccc12)C(=O)N[C@H](C(=O)N[C@@H](CCCCN)C(=O)N[C@@H](CCCNC(=N)N)C(=O)N[C@@H](CCCCN)C(=O)N[C@@H](CCCNC(=N)N)C(=O)N[C@@H](CCC(N)=O)C(=O)N[C@@H](CCC(N)=O)C(N)=O)[C@@H](C)CC)[C@@H](C)CC)[C@@H](C)O)[C@@H](C)O)C(C)C)C(C)C [melittin] | – | – | high cytotoxicity | exceeding 8 μg/mL | ≥ 8000 | ≥ 8000
